Measured values: patent publication US20170044121A1, “TETRA-O-SUBSTITUTED BUTANE-BRIDGE MODIFIED NDGA DERIVATIVES, THEIR SYNTHESIS AND PHARMAECUTICAL USE” (Erimos Pharmaceuticals LLC, priority 2006, published 2017)
Structures can show the parent of a compound that is named as a salt. Where two headings read alike, the source gives them in different places.

Legend:
in vitro [1] = details: human; for Papp A→B at 90 min, 50 μM: Caco-2, pH 7.4, Papp mean A to B
Caco-2 cell monolayers [2] = details: Caco-2 test system, historical values; cited from earlier work
Caco-2 cell monolayers [3] = details: for Mass balance mean A to B: 50 μM
[4] = system: HeLa (cervical adenocarcinoma); experiment: MTS cell viability assay, HeLa; type: cell-based; details: read-out: HeLa IC50
A549 (lung carcinoma) = experiment: MTS cell viability assay, A549; type: cell-based
[5] = system: H-69 small cell lung cancer cells; details: cited from earlier work
COS-7 cells = experiment: MTT cytotoxicity in COS-7 cells (run with SEAP); type: cell-based, green monkey; details: Chlorocebus sabaeus
[6] = system: TAT transactivation of the HIV-1 LTR promoter (TAT-TRS); experiment: cells; type: cell-based; details: Human immunodeficiency virus 1, COS-7, 48 h, read-out: SEAP EC50
MCP-1 = MCP-1 protein production in TNF-α-treated primary human keratinocytes; type: cell-based; details: Keratinocyte, read-out: MCP-1 IC50
[7] = cited from earlier work
Caco-2 cell monolayers [8] = experiment: Caco-2 monolayer permeability study
[9] = Caco-2 monolayer permeability study; details: human
in vitro [10] = experiment: in vitro
[11] = system: apoptosis in cultured cells (DNA fragmentation); experiment: TiterTACS DNA fragmentation apoptosis assay; type: cell-based; details: TiterTACS apoptosis detection
survivin = experiment: ELISA survivin assay (cell lysates); type: cell-based; details: Homo sapiens, survivin protein in cell lysates
VEGF = experiment: ELISA VEGF assay (DFO-induced hypoxia); type: cell-based; details: Homo sapiens, read-out: VEGF IC50
[12] = system: Breast Cancer cell line panel (8 cell lines); experiment: cells; details: Homo sapiens, 48 h, read-out: LC50
[13] = Non-specific binding to 24-well assay plate without cells; details: single well of a 24-well assay plate without cells
[14] = system: NSCLC cell line panel (9 cell lines); experiment: cells; details: Homo sapiens, 48 h, read-out: LC50
[15] = system: Leukemia cell line panel (6 cell lines); experiment: cells; details: Homo sapiens, 48 h, read-out: LC50
[16] = system: Ovarian Cancer cell line panel (6 cell lines); details: Ovarian Cancer (6 cell lines), 48 hours, SRB
[17] = system: Prostate cell line panel (1 cell line); details: Prostate (1 cell line), 48 hours, SRB
[18] = system: CNS cell line panel (5 cell lines); experiment: cells; details: Homo sapiens, 48 h, read-out: LC50
[19] = system: Colon Cancer cell line panel (6 cell lines); experiment: cells; details: Homo sapiens, 48 h, read-out: LC50
[20] = system: NSCLC cell line panel (9 cell lines); details: NSCLC (9 cell lines), 48 hours, SRB
[21] = system: Ovarian Cancer cell line panel (6 cell lines); experiment: cells; details: Homo sapiens, 48 h, read-out: LC50
[22] = system: CNS cell line panel (5 cell lines); details: CNS (5 cell lines), 48 hours, SRB
[23] = system: Breast Cancer cell line panel (8 cell lines); details: Breast Cancer (8 cell lines), 48 hours, SRB
[24] = system: Prostate cell line panel (1 cell line); experiment: cells; details: Homo sapiens, 48 h, read-out: LC50
[25] = system: Leukemia cell line panel (6 cell lines); details: Leukemia (6 cell lines), 48 hours, SRB
[26] = system: Melanoma cell line panel (8 cell lines); details: Melanoma (8 cell lines), 48 hours, SRB
[27] = system: Renal Cancer cell line panel (8 cell lines); details: Renal Cancer (8 cell lines), 48 hours, SRB
[28] = system: Renal Cancer cell line panel (8 cell lines); experiment: cells; details: Homo sapiens, 48 h, read-out: LC50
[29] = system: Melanoma cell line panel (8 cell lines); experiment: cells; details: Homo sapiens, 48 h, read-out: LC50
[30] = system: Colon Cancer cell line panel (6 cell lines); details: Colon Cancer (6 cell lines), 48 hours, SRB
[31] = Homo sapiens, A549, read-out: A549 IC50
[32] = MTT assay, COS-7 test cells of the SEAP assay, read-out: COS-7 IC50
[33] = TNF-α-treated PHK, MCP-1 protein production, ELISA
[34] = Caco-2, nominal conc. 20 μM, 90 minutes, duplicate monolayers
[35] = human, Caco-2, 90 min, 1 μM, pH 7.4

In the case of CC(C)NCC(O)COc1cccc2ccccc12 (stereo not shown) [propranolol, reference compound], the Papp A→B at 90 min, 50 μM (in vitro [1]) is listed as 14.2 ×10⁻⁶ cm/s, the “Papp historical range at the testing facility (mean ± SD)” value (Caco-2 cell monolayers [2]) is listed as 1.5×10^−5±4.2×10^−5 and the “Mass balance mean A to B” value (Caco-2 cell monolayers [3]; human, Caco-2, 90 min, pH 7.4) is listed as 71%.

In the case of Cc1nc(COc2ccc(CCCCc3ccc(OCc4csc(C)n4)c(OCc4csc(C)n4)c3)cc2OCc2csc(C)n2)cs1 [Compound G, 1,4-bis{3,4-bis(2-methyl-thiazol-4-yl-methoxy)phenyl}-butane tetrakis-hydrochloride salt], the IC50 ([4]; Homo sapiens, HeLa) is reported as over 100 µM and the IC50 (A549 (lung carcinoma); [31]) is reported as over 100 µM.

In the case of Oc1ccc(CCCCc2ccc(O)c(O)c2)cc1O [Compound B, 1,4-bis-(3,4-hydroxyphenyl) butane], the “potency relative to NDGA as proliferative inhibitor” value [5] is listed as 10 times and the melting point is listed as 140 to 142 °C.

Work on COc1ccc(CCCCc2ccc(OC)c(OC)c2)cc1OC [Compound A, 1,4-bis-(3,4-methoxyphenyl) butane] yielded an IC50 (COS-7 cells; COS-7, read-out: COS-7 IC50) of over 100 µM, an EC50 [6] of over 100 µM and an IC50 ([4]; Homo sapiens, HeLa) of over 100 µM. It also gave an IC50 (MCP-1) of over 100 µM and an IC50 (A549 (lung carcinoma); [31]) of over 100 µM.

In the case of COc1ccc(C[C@@H](C)[C@@H](C)Cc2ccc(OC)c(OC)c2)cc1OC [Compound M4N, (tetra-O-methyl)nordihydroguaiaretic acid], the water solubility [7] is given as “poor”.

Work on Cc1nc(COc2ccc(CCCCc3ccc(OCc4csc(C)n4)c(OCc4csc(C)n4)c3)cc2OCc2csc(C)n2)cs1 (as salt: hydrochloride) [Compound G, 1,4-bis{3,4-bis(2-methyl-thiazol-4-yl-methoxy)phenyl}-butane tetrakis-hydrochloride salt] yielded a melting point of 96 to 98 °C.

In the case of CCOc1ccc(CCCCc2ccc(OCC)c(OCC)c2)cc1OCC [Compound C, 1,4-bis-(3,4-ethoxyphenyl) butane], the IC50 (COS-7 cells; [32]) is reported as over 100 µM, the EC50 [6] is reported as over 100 µM and the melting point is reported as 113 to 115 °C. It also gave an IC50 ([4]; Homo sapiens, HeLa, MTS assay) of over 100 µM, an IC50 (MCP-1; [33]) of over 100 µM and an IC50 (A549 (lung carcinoma); Homo sapiens, A549, MTS assay, read-out: A549 IC50) of over 100 µM.

Compound CN1CCN(CCOc2ccc(CCCCc3ccc(OCCN4CCN(C)CC4)c(OCCN4CCN(C)CC4)c3)cc2OCCN2CCN(C)CC2)CC1 [Compound F, 1,4-bis{3,4-bis[2-(1-methyl-piperazin-4-yl)-ethoxy]phenyl}-butane] has an IC50 ([4]; Homo sapiens, HeLa) of over 100 µM and an IC50 (A549 (lung carcinoma); [31]) of over 100 µM.

For C[C@H]1O[C@@H](O[C@H]2[C@@H](O)C[C@H](O[C@H]3[C@@H](O)C[C@H](O[C@H]4CC[C@@]5(C)[C@H](CC[C@@H]6[C@@H]5C[C@@H](O)[C@]5(C)[C@@H](C7=CC(=O)OC7)CC[C@]65O)C4)O[C@@H]3C)O[C@@H]2C)C[C@H](O)[C@@H]1O [digoxin, reference compound], the “Mass balance mean A to B” value (Caco-2 cell monolayers [8]; Caco-2, 5 μM, 90 minutes) was 73%, the “Mass balance mean B to A” value (Caco-2 cell monolayers [8]; Caco-2, 5 μM, 90 minutes) was 79% and the “Polarization Ratio mean (B-A/A-B)” value (Caco-2 cell monolayers [8]; Caco-2, 5 μM, 90 minutes) was 5.4. For the same compound, the “Papp mean B to A” value (Caco-2 cell monolayers [8]; Caco-2, 5 μM, 90 minutes, pH 7.4) was 12.4 ×10⁻⁶ cm/s and the Papp A→B at 90 min, 5 μM ([9]; Caco-2, pH 7.4, Papp mean A to B, Caco-2, 5 μM, 90 minutes, pH 7.4) was 2.28 ×10⁻⁶ cm/s.

With OC[C@@H](O)[C@@H](O)[C@H](O)[C@H](O)CO [mannitol, reference compound] the Papp A→B at 90 min, 50 μM (in vitro [1]) was 0.514 ×10⁻⁶ cm/s and the “Mass balance mean A to B” value (Caco-2 cell monolayers [3]; human, Caco-2, 90 min, pH 7.4) was 96%.

For c1cc(OCCCN2CCCCC2)c(OCCCN2CCCCC2)cc1CCCCc1ccc(OCCCN2CCCCC2)c(OCCCN2CCCCC2)c1 [Compound E, 1,4-bis{3,4-bis[3-(piperidin-1-yl)propoxy]phenyl}-butane tetrakis-hydrochloride salt], the IC50 ([4]; MTS assay) was 5 to 10 µM and the IC50 (A549 (lung carcinoma); MTS assay, read-out: A549 IC50) was 9 µM.

For CN(C)CCOc1ccc(CCCCc2ccc(OCCN(C)C)c(OCCN(C)C)c2)cc1OCCN(C)C [Compound H, 1,4-bis{3,4-bis(2-(N,N′-dimethylamino)-ethoxy)phenyl}-butane], the recovery at 90 min, 20 μM (in vitro [10]) was 96%, the IC50 (COS-7 cells; COS-7, read-out: COS-7 IC50) was 20 to 30 µM and the EC50 [6] was 30 to 40 µM. The DNA fragmentation [11] was “Positive”, the melting point was 65 to 67 °C and the IC50 ([4]; Homo sapiens, HeLa) was 20 to 30 µM. For the same compound, the IC50 (survivin) was about 25 µM, the IC50 (MCP-1) was 75 µM and the IC50 (VEGF) was over 60 µM. For the same compound, the IC50 (A549 (lung carcinoma); [31]) was 20 to 40 µM, the “Polarization Ratio [B-A/A-B]” value (Caco-2 cell monolayers [8]; Caco-2, nominal conc. 20 μM) was 0.15 and the “Papp A to B” value (Caco-2 cell monolayers [8]; [34]) was 64.4 ×10⁻⁶ cm/s. For the same compound, the “Papp B to A” value (Caco-2 cell monolayers [8]; [34]) was 10.1 ×10⁻⁶ cm/s, the “Mass Balance A to B” value (Caco-2 cell monolayers [8]; Caco-2, nominal conc. 20 μM, recovery from apical and basolateral chambers, duplicates) was “≧100%” and the Papp B→A at 90 min, 20 μM ([9]; Caco-2, pH 7.4) was 10.1 ×10⁻⁶ cm/s. The Papp A→B at 90 min ([9]; Caco-2, pH 7.4, BCS permeability class, from A-B Papp in Caco-2 versus mannitol and propranolol) was over 14.2 ×10⁻⁶ cm/s, the Papp A→B at 90 min, 20 μM ([9]; Caco-2, pH 7.4, Papp A to B, Caco-2, nominal conc. 20 μM, 90 minutes, duplicate monolayers) was 66.7 ×10⁻⁶ cm/s and the efflux ratio at 90 min, 20 μM ([9]; Caco-2, pH 7.4, Polarization Ratio [B-A/A-B], Caco-2, nominal conc. 20 μM) was 0.1 to 0.2.

Work on c1cc(OCCCN2CCCCC2)c(OCCCN2CCCCC2)cc1CCCCc1ccc(OCCCN2CCCCC2)c(OCCCN2CCCCC2)c1 [Compound D, 1,4-bis{3,4-bis[3-(piperidin-1-yl)propoxy]phenyl}-butane] yielded a CC50 [12] of 30.8 µM, a recovery at 90 min, 1 μM [13] of 35% and a CC50 [14] of 28.4 µM. The CC50 [15] was 13.4 µM, the “Mean Growth Percent at 10 μM” value ([16]; 10 μM) was 66.18% and the TGI [16] was 1.46E−5. For the same compound, the “Mean Growth Percent at 10 μM” value ([17]; 10 μM) was 2.84%, the TGI [17] was 2.76E−5 and the CC50 [18] was 11 µM. For the same compound, the CC50 [19] was 22.8 µM, the IC50 (COS-7 cells; [32]) was 0.8 to 0.9 µM and the “Mean Growth Percent at 10 μM” value ([20]; 10 μM) was 62.77%. The TGI [20] was 7.31E−6, the CC50 [21] was 35.3 µM and the Papp A→B at 90 min, 1 μM (in vitro [1]; Caco-2, pH 7.4, Papp A to B) was 13.8 ×10⁻⁶ cm/s. The Papp B→A at 90 min, 1 μM (in vitro [1]; Caco-2, pH 7.4, Papp B to A) was 2.35 ×10⁻⁶ cm/s, the efflux ratio at 90 min, 1 μM (in vitro [1]; Caco-2, pH 7.4, Polarization Ratio [B-A/A-B]) was 0.1 to 0.2 and the “Mean Growth Percent at 10 μM” value ([22]; 10 μM) was 78.88%. For the same compound, the TGI [22] was 4.13E−6, the “Mean Growth Percent at 10 μM” value ([23]; 10 μM) was 59.72% and the TGI [23] was 2.11E−5. The EC50 [6] was 0.7 to 0.8 µM, the CC50 [24] was 53.9 µM and the DNA fragmentation [11] was “Positive”. For the same compound, the “Mean Growth Percent at 10 μM” value ([25]; 10 μM) was 12.31%, the TGI [25] was 4.28E−6 and the IC50 ([4]; Homo sapiens, HeLa, MTS assay) was 5 to 6 µM. The IC50 (MCP-1; [33]) was 3 µM, the IC50 (VEGF; VEGF released into media, ELISA) was about 4 µM and the “Mean Growth Percent at 10 μM” value ([26]; 10 μM) was 16.46%. The TGI [26] was 7.74E−6, the “Mean Growth Percent at 10 μM” value ([27]; 10 μM) was 82.54% and the TGI [27] was 1.70E−5. For the same compound, the IC50 (A549 (lung carcinoma); MTS assay, read-out: A549 IC50) was 1 to 2 µM, the BCS permeability class (Caco-2 cell monolayers [3]; Caco-2) was “moderate-to-high” and the “Papp A to B” value (Caco-2 cell monolayers [3]; [35]) was 14 ×10⁻⁶ cm/s. The “Papp B to A” value (Caco-2 cell monolayers [3]; [35]) was 2.51 ×10⁻⁶ cm/s, the “Polarization Ratio [B-A/A-B]” value (Caco-2 cell monolayers [3]; [35]) was 0.18 and the CC50 [28] was 37 µM. The CC50 [29] was 15.9 µM, the “Mean Growth Percent at 10 μM” value ([30]; 10 μM) was 40.49% and the TGI [30] was 6.45E−6.
